Results published in patent US9210928B2, “Plant development control composition” (Syngenta Crop Protection, LLC, priority 2008, dated 2015).

Columns and labels:
LeCCD1a = LeCCD1a (Solanum lycopersicum, UniProt Q6E4P5); experiment: In vitro LeCCD1a enzyme assay (recombinant cell-free extract, colourimetric, apo-8′-carotenal substrate); format: biochemical, tomato (Solanum lycopersicum); settings: for inhibition at 100 µM: read-out: LeCCD1a (9,10/9′,10′) Inhibition @ 100 μM (%)
Procedure: In vitro LeCCD1a enzyme assay—We over-expressed LeCCD1a in E. coli, as a GST-fusion protein (supplemental methods). The in vitro assay of LeCCD1a was based on reported methods (37), and was carried out in a 200 μl total volume in a 96-well microtitre plate, with the signal detected at 485 nm. To prepare substrate solution for each assay, 5 μl of 4% (w/v in ethanol) apo-8′-carotenal (Sigma) was mixed with 25 μl of 4% (w/v in ethanol) β-octylglucoside (Sigma), the ethanol was then evaporated under nitrogen, and the residue dissolved in 150 μl PBS buffer containing 10 mM sodium ascorbate by incubation at 20° C. for 30 min. 50 μl of cell-free extract containing recombinant LeCCD1a was added, and the reactions monitored over 30 min at 20° C.
For the production of cell-free extracts of LeCCD1a and LeNCED1, cultures were grown to an OD of 0.6 at 37° C., then isopropyl β-D-1-thiogalactopyranoside (IPTG) was added to 0.2 mM and the cultures grown overnight at 20° C. The cells (200 ml cultures) were harvested by centrifugation (5000 rpm, 10 min) and the pellet re-suspended in 4 ml PBS, 0.1% Triton-X 100. Lysozyme was added to a final concentration of 25 μg ml^−1 and the solution incubated at room temperature for 15 min before sonication (3×30 s at 18Ω) on ice. The lysate was then centrifuged (13000 rpm, 15 min, 4° C.) and the supernatant used for the assay.
Specificity of inhibition in vitro for tomato genes LeNCED1 and LeCCD1a—In order to screen the inhibitors against enzymes which cleave carotenoids at the 9,10 position, we used the recombinant tomato LeCCD1a protein (44), because this type of enzyme can be studied using an in vitro colourimetric assay with β-apo-8′-carotenal as substrate (37). To establish the specificity of the inhibitors, they were also tested against the tomato LeNCED1 recombinant protein which cleaves 9-cis carotenoids at the 11,12 position (45). For this enzyme, the cleavage reaction was monitored by C18 reverse phase HPLC, using 9′-cis-neoxanthin as substrate.

whole Arabidopsis plants = experiment: Shoot branching in whole Arabidopsis plants grown in agar; format: in vivo; settings: applied to whole plants
Procedure: Branching phenotypes of Arabidopsis plants grown in agar media for 45 days supplemented with inhibitor D6. Images are shown: (a) Col-0 (WT) without inhibitor; (b) max3-9 mutant without inhibitor; (c) Col-0 with 100 μM D6. The numbers (d) of rosette branches were quantified. Error bars represent standard error of the mean, n=6 to 12.
Stimulation of shoot branching in whole Arabidopsis plants—Inhibitors were also applied to Arabidopsis whole plants grown under sterile conditions in agar. […] Inhibitor treated plants were intermediate (mean of approximately 2 branches) and so partially mimicked max3-9 (FIG. 6d).

Sequence of LeCCD1a (Q6E4P5 1-545): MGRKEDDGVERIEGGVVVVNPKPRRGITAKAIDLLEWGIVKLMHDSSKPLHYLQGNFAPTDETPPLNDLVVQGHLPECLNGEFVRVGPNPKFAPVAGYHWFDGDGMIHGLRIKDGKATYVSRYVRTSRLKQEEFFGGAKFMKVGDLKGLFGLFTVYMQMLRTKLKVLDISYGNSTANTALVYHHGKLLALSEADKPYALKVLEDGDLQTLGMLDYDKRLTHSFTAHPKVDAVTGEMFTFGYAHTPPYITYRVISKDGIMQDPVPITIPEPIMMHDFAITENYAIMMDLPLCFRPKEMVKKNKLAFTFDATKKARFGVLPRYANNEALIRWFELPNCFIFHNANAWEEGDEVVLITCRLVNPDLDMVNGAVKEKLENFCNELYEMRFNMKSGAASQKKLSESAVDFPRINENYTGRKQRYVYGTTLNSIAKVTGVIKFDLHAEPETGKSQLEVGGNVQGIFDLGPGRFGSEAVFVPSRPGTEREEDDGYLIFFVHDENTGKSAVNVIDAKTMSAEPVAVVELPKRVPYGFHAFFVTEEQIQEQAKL

Compound | inhibition of LeCCD1 in vitro (in words) (LeCCD1a) | inhibition at 100 µM (LeCCD1a) [%] | unintended effects on whole Arabidopsis plants (whole Arabidopsis plants) | LeCCD1a (9,10/9′,10′) Inhibition @ 100 μM (%) (LeCCD1a; 100 μM inhibitor, E. coli cell extract with recombinant CCD)
COc1ccc(C(=O)N(O)Cc2ccccc2)cc1 [Compound F1, N-benzyl-4-methoxybenzoyl hydroxamic acid] | high levels of inhibition of LeCCD1 | > 95 | caused bleaching of leaves | –
COc1ccc(C(=O)N(O)Cc2ccc(F)cc2)cc1 [Compound F2, N-(4-fluorobenzyl)-4-methoxybenzoyl hydroxamic acid] | high levels of inhibition of LeCCD1 | > 95 | caused bleaching of leaves | –
COc1ccc(C(=O)N(O)Cc2ccccc2)cc1OC [Compound F3, N-benzyl-3,4-dimethoxybenzoyl hydroxamic acid] | – | – | – | 50
